# Experimental data published in patent publication US20230321043A1, “COMPOUNDS HAVING PSEUDOMONAS ANTI-BIOFILM PROPERTIES” (Københavns Universitet, priority 2020, published 2023).
# Columns and labels:
# [1] = system: P. aeruginosa biofilms on implants; assay: P. aeruginosa-infected peritoneal implant model in mice; format: in vivo; conditions: intraperitoneal
# Description: Silicone implants (5 mm long, 6 mm OD×4 mm ID) were incubated with P. aeruginosa cultures (OD 0.1) for 20 hours to allow bacterial adhesion and subsequent coating. At time t=0, mice had the implants inserted in the peritoneal cavity and biofilm developed on the implants for 24 hours. (A) At 24 hours and 26 hours post-insertion of the implants (PI), the mice were treated with either H6-335-P1 (named “H6 P1” in FIG. 8) 25 μM (˜6 μg/g BW) in 0.2% cyclodextrin or 0.2% cyclodextrin, and at 26 hours PI with 30 μg per g BW tobramycin (TOB) or 0.9% NaCl. […] At 28 hours PI the mice were euthanized, and the bacterial contents as CFU per implant were determined. The median CFU per implant for the placebo group was set to 100. The median CFU per implant for the placebo groups were 8.5×10^6 (A) and 1.5×10^6 (B). Horizontal lines indicate median CFU for each group. Each symbol represents a mouse. Significance levels are based on Mann-Whitney U test (analysis of non-parametric data). IP administered doses: TOB: 30 mg/Kg BW, CIP: 10 mg/Kg BW, H6 P1: 2×6 mg/Kg BW.
# The inventors first determined H6-335-P1 anti-biofilm efficacy in implant-harboring mice at low dosages (concentration) of 5 to 25 μM H6-335-P1 which corresponds to 1 to 5 μg H6-335-P1 per gram of body weight. […]
# [2] = system: P. aeruginosa mPA01 wt and PDE mutants incl. PA4367 (bifA); assay: dispersal of biofilms of PDE transposon mutants, crystal violet; format: cell-based, Pseudomonas aeruginosa; conditions: 18 hours old biofilm, two hours of treatment, FIG. 6A
# Description: The inventors obtained mutants of all P. aeruginosa PDEs from the Washington P. aeruginosa mPAO1 transposon mutant library and investigated the ability of H6-335-P1 to disperse biofilms formed by each of these mutants in microtiter trays. […]
# The resulting cultures were incubated at 37° C. on a rotary shaker (160 RPM) and biofilms were grown for 18 hours, at which time point either 2 μL of a 5 mM H6-335-P1 in 50% DMSO (+) or 2 μL of 50% DMSO (−) were added to each well. After two subsequent hours of growth, the culture supernatants were discarded and the amounts of biofilm present in the wells were quantified by crystal violet (CV) staining (Groizeleau et al., 2016).
# The amounts of biofilm prevailing after two hours of treatments were determined for the wt strain mPA01 and each of the PDE mutants. […]
# [3] = system: P. aeruginosa ΔwspFΔpelΔpsl; assay: growth (OD600) of treated cultures; format: cell-based, Pseudomonas aeruginosa; conditions: 0 to 100 μM, 24 hours, FIG. 3B
# Description: Specifically, a 20 h old culture of P. aeruginosa ΔwspF,Δpsl,Δpel (Rybtke et al 2012) was diluted 100 fold into 25 mL aliquots of ABtrace media supplemented with 0.5% Cas amino acids, 0.2% glucose, 60 μg/mL of gentamicin, 1 μM FeCl3, 0.05% DMSO and either 100 μM H6-335-P1, 100 μM H6-335 or no compound as reference control. Acting as a positive control for low total cellular c-di-GMP content, a 20 hour old culture of strain P. aeruginosa ΔwspF,Δpsl,Δpel carrying plasmid pYhj::Gm (encoding a constitutively expressed YhjH phosphodiesterase) was also diluted 100 fold into 25 mL of ABtrace medium supplemented with 0.5% Cas amino acids, 0.2% glucose, 60 μg/mL of gentamicin, 1 μM FeCl3 and 0.05% DMSO. The 4 cultures were placed on a rotary shaker and following 8 hours of growth at 37° C. and 200 RPM culture samples for c-di-GMP extraction and protein quantification was collected from each of the 4 different cultures. C-di-GMP extracts were prepared and subsequently quantified by HPLC coupled tandem-MS analysis as previously described (Groizeleau et al., 2016), while protein quantification was carried out using the Pierce 660 nm Protein Assay (Thermo Scientific Cat. No 22660) according to the manufacturer's protocol. […]
smiles,measurement,setting,value
"N=C1NN=C(N)/C1=N/Nc1ccccc1F [H6-335-P1, 4-[(2-fluorophenyl) hydrazinylidene]pyrazole-3,5-diamine]",biofilm bacteria dispersed from the implant,"[1]; 5 to 25 μM (1 to 5 μg per gram of body weight), four hours of exposure, not shown",up to 90%
same,"CFU on implants, combinatorial treatment followed by tobramycin or ciprofloxacin",[1]; FIG. 8,synergistic antimicrobial (lethal) effects
same,induced dispersal of biofilm of the bifA mutant (PA4367),[2],did not respond to H6-335-P1 induced dispersal
same,induced dispersal of biofilms of P. aeruginosa wt and all the remaining PDE mutants,[2],dispersed in response to H6-335-P1 exposure
same,effect on growth (OD600),[3],does not inhibit growth
